# Data published in US20070032529A1, “Pyrazole compounds and their use as antidiabetes agents” (Japan Tobacco Inc., priority 2005, published 2007).
# Counter-ions that a name gives are not always drawn.
# Key:
# db/db mice = experiment: Measuring blood plasma glucose concentration in db/db mice (hypoglycemic effect); format: in vivo; design: key: ++: compounds exhibiting statistically significant hypoglycemic effect at a dose of 10 mg/kg or less; +: compounds exhibiting not significant but obvious hypoglycemic effect at a dose of 10 mg/kg; conditions: db/db mice fasted 4 h, oral administration, plasma glucose 1 and 3 hours after administration, dose 10 mg/kg or less, Dunnett test vs solvent
# Method: 2. Exemplary Test (2) Method for Measuring Blood Plasma Glucose Concentration
# Using db/db mice representing an obesity type of diabetic model were used to examine the effect of compound (1) of the present invention on glucose concentrations in plasma. Plasma glucose concentrations of the db/db mice (9-18 weeks old) were measured, and the mice were divided into groups each of 5 or 8 mice such that there would be no difference in the average value of plasma glucose concentrations. After fasting for four hours, the example compound or the solvent (0.5% methylcellulose) was administered orally to the db/db mice, and plasma glucose concentrations were measured 1 and 3 hours after administration. The analysis of the hypoglycemic effect of the example compound was performed through a statistical test at every hour between the group receiving the solvent and the groups of example compound (Dunnett test).
# [1] = target: T1, recombinant human liver glycogen phosphorylase (Homo sapiens, UniProt P06737); experiment: Measuring liver glycogen phosphorylase activity (forward reaction system, NADPH absorbance at 340 nm); format: biochemical; conditions: for inhibition at 0.1 µM: figure in brackets (100), read-out: IC50: % value given with (100); for inhibition at 0.3 µM: figure in brackets (300), read-out: IC50 column: % value printed with (300)
# T1 construct: made in house; host or cells: Sf9 insect cells (crude homogenate, diluted, used as the enzyme solution)
# T1 sequence (P06737 1-847): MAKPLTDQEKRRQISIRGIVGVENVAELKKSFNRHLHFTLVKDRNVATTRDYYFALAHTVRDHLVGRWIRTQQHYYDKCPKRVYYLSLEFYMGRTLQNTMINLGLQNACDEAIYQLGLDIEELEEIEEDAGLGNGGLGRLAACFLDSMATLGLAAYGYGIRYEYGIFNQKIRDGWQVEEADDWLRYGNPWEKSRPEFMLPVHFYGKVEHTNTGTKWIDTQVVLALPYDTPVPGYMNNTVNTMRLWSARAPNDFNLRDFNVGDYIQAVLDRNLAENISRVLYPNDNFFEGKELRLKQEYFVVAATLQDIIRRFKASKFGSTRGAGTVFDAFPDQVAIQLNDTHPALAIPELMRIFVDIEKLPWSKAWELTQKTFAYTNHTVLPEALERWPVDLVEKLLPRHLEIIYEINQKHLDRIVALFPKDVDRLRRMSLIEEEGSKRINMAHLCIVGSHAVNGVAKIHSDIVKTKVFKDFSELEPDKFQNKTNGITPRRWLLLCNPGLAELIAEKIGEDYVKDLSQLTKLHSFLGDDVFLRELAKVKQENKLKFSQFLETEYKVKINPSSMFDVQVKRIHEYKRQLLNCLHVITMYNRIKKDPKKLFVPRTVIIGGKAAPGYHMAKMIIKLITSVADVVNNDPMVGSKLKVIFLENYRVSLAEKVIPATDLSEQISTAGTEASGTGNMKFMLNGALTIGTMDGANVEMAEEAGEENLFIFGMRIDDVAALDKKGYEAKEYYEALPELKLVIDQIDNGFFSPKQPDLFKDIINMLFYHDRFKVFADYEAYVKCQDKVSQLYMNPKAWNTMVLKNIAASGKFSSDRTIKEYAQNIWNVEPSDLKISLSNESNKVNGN
# Outline: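 Sf9 homogenate expressing the enzyme, in pH 6.8 BES/EDTA, with glycogen and phosphate substrate plus glucose, coupled via phosphoglucomutase/G6PDH to NADPH formation. A340 change over 75 min at room temperature, blank-corrected; IC50 linearly interpolated between the two concentrations bracketing 50% inhibition versus 1% DMSO control.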
# [2] = enzyme inhibitory activity with respect to liver glycogen phosphorylase, class symbols
# [3] = human liver glycogen phosphorylase, class symbol
"IC50 [1, 3] [nM]",SMILES,vivo (hypoglycemic effect in db/db mice) (db/db mice),other results
–,"O=C(NCc1cccnc1)c1cc(NC(=O)c2cc(F)c(F)cc2Cl)[nH]n1 [Example 1-1-1, 5-(2-chloro-4,5-difluoro-benzoylamino)-1H-pyrazole-3-carboxylic acid (pyridin-3-ylmethyl)-amide dihydrochloride]",++,–
–,"Cc1ncoc1CNC(=O)c1cc(NC(=O)c2cc(F)c(F)cc2Cl)[nH]n1 [Example 1-2, 5-(2-chloro-4,5-difluoro-benzoylamino)-1H-pyrazole-3-carboxylic acid (4-methyl-oxazol-5-ylmethyl)-amide]",++,"IC50 [1, 2]: < 100 nM"
–,"Cc1ccnc(C)c1CNC(=O)c1cc(NC(=O)c2cc(F)c(F)cc2Cl)[nH]n1 [Example 1-3-1, 5-(2-chloro-4,5-difluoro-benzoylamino)-1H-pyrazole-3-carboxylic acid (2,4-dimethyl-pyridin-3-ylmethyl)-amide dihydrochloride]",++,"IC50 [1, 2]: < 100 nM"
–,COc1ccc(CNC(=O)c2cc(NC(=O)c3cc(F)c(F)cc3Cl)[nH]n2)cn1 [Example 1-12],–,"IC50 [1, 2]: < 100 nM; vivo (hypoglycemic effect in db/db mice) (db/db mice; 10 mg/kg): ++"
–,COc1cccc(OC)c1CNC(=O)c1cc(NC(=O)c2cc(F)c(F)cc2Cl)[nH]n1 [Example 1-15],+,"IC50 [1, 2]: < 100 nM"
–,O=C(NCc1cccc(F)c1F)c1cc(NC(=O)c2cc(F)c(F)cc2Cl)[nH]n1 [Example 1-18],+,"IC50 [1, 2]: < 100 nM"
–,CN(C)c1ccc(CNC(=O)c2cc(NC(=O)c3cc(F)c(F)cc3Cl)[nH]n2)cc1.Cl [Example 3-29],+,–
–,"CN(C(=O)c1cc(NC(=O)c2cc(F)c(F)cc2Cl)[nH]n1)c1ccc(C(=O)[O-])cc1.[Na+] [Example 4-2-1, 4-{[5-(2-chloro-4,5-difluoro-benzoylamino)-1H-pyrazole-3-carbonyl]-methyl-amino}-benzoic acid sodium salt]",++,–
–,Cc1noc(C)c1CNC(=O)c1cc(NC(=O)c2cc(F)c(F)cc2Cl)[nH]n1.Cl [Example 5-8],+,–
–,Cc1nn(C)c(C)c1CNC(=O)c1cc(NC(=O)c2cc(F)c(F)cc2Cl)[nH]n1 [Example 5-9],+,–
–,CS(=O)(=O)O.Cc1noc(C)c1CNC(=O)c1cc(NC(=O)c2cc(F)c(F)cc2Cl)[nH]n1 [Example 5-10],+,–
–,COc1cncc(OC)c1CNC(=O)c1cc(NC(=O)c2cc(F)c(F)cc2Cl)[nH]n1 [Example 5-17],+,–
–,Cl.O=C(NCc1ccc(-c2csnn2)cc1)c1cc(NC(=O)c2cc(F)c(F)cc2Cl)[nH]n1 [Example 5-31],+,–
–,O=C(NCc1cnccn1)c1cc(NC(=O)c2cc(F)c(F)cc2Cl)[nH]n1 [Example 5-42],+,–
–,O=C(NCc1ccc(N2CCSCC2)nc1)c1cc(NC(=O)c2cc(F)c(F)cc2Cl)[nH]n1 [Example 5-43],+,–
–,O=C(NCc1ccc(N2CCS(=O)(=O)CC2)nc1)c1cc(NC(=O)c2cc(F)c(F)cc2Cl)[nH]n1 [Example 5-44],+,–
< 100,CC(=Nc1ccc(CNC(=O)c2cc(NC(=O)c3cc(F)c(F)cc3Cl)[nH]n2)cc1)N(C)C [Example 6-26],–,–
< 100,CCN(C=Nc1ccccc1CNC(=O)c1cc(NC(=O)c2cc(F)c(F)cc2Cl)[nH]n1)CC [Example 6-27],–,–
< 100,CCN(C=Nc1cccc(CNC(=O)c2cc(NC(=O)c3cc(F)c(F)cc3Cl)[nH]n2)c1)CC [Example 6-28],–,–
< 100,CCN(C=Nc1ccc(CNC(=O)c2cc(NC(=O)c3cc(F)c(F)cc3Cl)[nH]n2)cc1)CC [Example 6-29],–,–
< 100,CC(=N)Nc1ccccc1CNC(=O)c1cc(NC(=O)c2cc(F)c(F)cc2Cl)[nH]n1 [Example 6-30],–,–
< 100,CC(=N)Nc1cccc(CNC(=O)c2cc(NC(=O)c3cc(F)c(F)cc3Cl)[nH]n2)c1 [Example 6-31],–,–
< 100,CC(=N)Nc1ccc(CNC(=O)c2cc(NC(=O)c3cc(F)c(F)cc3Cl)[nH]n2)cc1 [Example 6-32],–,–
< 100,N=C(Nc1cccc(CNC(=O)c2cc(NC(=O)c3cc(F)c(F)cc3Cl)[nH]n2)c1)c1ccccc1F [Example 6-34],–,–
< 100,N=C(Nc1ccc(CNC(=O)c2cc(NC(=O)c3cc(F)c(F)cc3Cl)[nH]n2)cc1)c1ccccc1F [Example 6-35],–,–

"IC50 [1, 3] [nM]",SMILES,vivo (hypoglycemic effect in db/db mice) (db/db mice),other results
< 100,CN(C)C(=O)Nc1cccc(CNC(=O)c2cc(NC(=O)c3cc(F)c(F)cc3Cl)[nH]n2)c1 [Example 6-36],–,–
< 100,CN(C)C(=O)Nc1ccc(CNC(=O)c2cc(NC(=O)c3cc(F)c(F)cc3Cl)[nH]n2)cc1 [Example 6-37],–,–
< 100,Cc1ccc(S(=O)(=O)Nc2ccccc2CNC(=O)c2cc(NC(=O)c3cc(F)c(F)cc3Cl)[nH]n2)cc1 [Example 6-38],–,–
< 100,Nc1cc(F)c(F)cc1CNC(=O)c1cc(NC(=O)c2cc(F)c(F)cc2Cl)[nH]n1 [Example 6-40],–,–
–,O=C(NC1CCc2ccccc21)c1cc(NC(=O)c2cc(F)c(F)cc2Cl)[nH]n1 (stereo not drawn) [Example 6-41],–,inhibition at 0.1 µM [1]: 12.3%
–,O=C(NC1Cc2ccccc2C1)c1cc(NC(=O)c2cc(F)c(F)cc2Cl)[nH]n1 [Example 6-42],–,inhibition at 0.1 µM [1]: 21.7%
< 100,O=C(Nc1cc(C(=O)N2C=NC3CCCCC3C2)n[nH]1)c1cc(F)c(F)cc1Cl (stereo not drawn) [Example 6-43],–,–
< 100,O=C(Nc1cc(C(=O)N2C=Nc3ccccc3C2)n[nH]1)c1cc(F)c(F)cc1Cl [Example 6-44],–,–
< 100,O=C(Nc1cc(C(=O)N2C=Nc3cc(F)ccc3C2)n[nH]1)c1cc(F)c(F)cc1Cl [Example 6-45],–,–
< 100,O=C(Nc1cc(C(=O)N2C=Nc3ccc(F)cc3C2)n[nH]1)c1cc(F)c(F)cc1Cl [Example 6-46],–,–
–,CCOC1(C)Nc2ccccc2CN1C(=O)c1cc(NC(=O)c2cc(F)c(F)cc2Cl)[nH]n1 (stereo not drawn) [Example 6-47],–,inhibition at 0.1 µM [1]: 41.1%
< 100,N/C(=N\O)c1cc(CNC(=O)c2cc(NC(=O)c3cc(F)c(F)cc3Cl)[nH]n2)ccn1 [Example 6-49],–,–
< 100,O=C(NCc1ccnc(-c2noc(=O)[nH]2)c1)c1cc(NC(=O)c2cc(F)c(F)cc2Cl)[nH]n1 [Example 6-50],–,–
< 100,Cc1cc(F)c(F)cc1C(=O)Nc1cc(C(=O)N(C)c2ccc(-c3nnn[nH]3)cc2)n[nH]1 [Example 7-2],–,–
< 100,O=C(NCc1cccnc1)c1cc(NC(=O)c2ccc(Cl)cc2Cl)[nH]n1 [Example 7-3],–,–
–,O=C(NCc1cccnc1)c1cc(NC(=O)c2cc(F)c(Cl)nc2Cl)[nH]n1 [Example 7-5],–,inhibition at 0.3 µM [1]: 8.5%
–,O=C(NCc1cccnc1)c1cc(NC(=O)c2sccc2Cl)[nH]n1 [Example 7-7],–,inhibition at 0.3 µM [1]: 2.9%
–,O=C(Nc1cc(C(=O)NCc2cccnc2)n[nH]1)c1ccccc1 [Example 7-8],–,inhibition at 0.3 µM [1]: 6.8%
–,Nc1cc(F)c(F)cc1C(=O)Nc1cc(C(=O)NCc2cccnc2)n[nH]1 [Example 7-11],–,inhibition at 0.1 µM [1]: 47.3%
–,CS(=O)(=O)Nc1cc(F)c(F)cc1C(=O)Nc1cc(C(=O)NCc2cccnc2)n[nH]1 [Example 7-12],–,inhibition at 0.1 µM [1]: 8%
–,CC(=O)Nc1cc(F)c(F)cc1C(=O)Nc1cc(C(=O)NCc2cccnc2)n[nH]1 [Example 7-13],–,inhibition at 0.1 µM [1]: 1.9%
–,O=C(NCc1cccnc1)c1cc(NC(=O)c2sc(Cl)c(Cl)c2Cl)[nH]n1 [Example 7-14],–,inhibition at 0.1 µM [1]: 4.6%
< 100,Cc1cc(F)c(F)cc1C(=O)Nc1cc(C(=O)NCc2ccnc(C#N)c2)n[nH]1 [Example 7-15],–,–
< 100,Cc1cc(F)c(F)cc1C(=O)Nc1cc(C(=O)NCc2ccnc(-c3nnn[nH]3)c2)n[nH]1 [Example 7-16],–,–
